Measurements taken from patent US11491232B2, “Lactuloside compounds and preparation and use thereof” (Fruithy Holdings Limited, priority 2017, dated 2022).

Assays:
[1] = Test on stability in mediums in vitro (buffer solutions with different pH, simulated intestinal fluid, simulated gastric fluid); assay type: physicochemical
Method: At 37° C., Compound 17 was incubated in different mediums (buffer solutions with different pH, a simulated intestinal fluid containing pancreatin, and simulated gastric fluid containing pepsin).
(§1) Other typical example compounds were tested for stability according to the above method, and the test results are shown in Table 8 below.

colon flora = experiment: Stability in the presence of colon flora (content in colon of rat); assay type: in vitro ADME, SD rat
Method: A phosphate buffer solution with a pH of 7.0 was formulated, and then CO2 was introduced to the solution to adjust the pH to 6.8. Then, the content in colon of a male SD rat (body weight: 180-220 g) was placed in a water bath at 37° C., and added into the phosphate buffer solution with a pH of 6.8 as prepared above under the protection of N2 to a concentration of 20% (w/v). The buffer solution was kept in an oxygen-free environment. Then, the test Compound 17 was added to the buffer solution, and the solution was stirred uniformly.
Supernatant was analyzed with HPLC, where the amount of each ingredient was calculated by normalization.
Note: in the above table, “T14.148 (%)” represents the percentage of peak area of the material with a retention time of 14.148 min “T14.713 (%)” represents the percentage of peak area of the material with a retention time of 14.713 min. “T16.392 (%)” represents the percentage of peak area of the material with a retention time of 16.392 min. “T22.624 (%)” represents the percentage of peak area of the material with a retention time of 22.624 min.
as §1

[2] = Simulated intestinal fluid (containing pancreatin) (pH 6.8) (8 h)
[3] = male, Sprague-Dawley (SD), rat, 1 h, pH 6.8
[4] = Content in colon (pH 6.8) (1 h)

Structure (SMILES) | Percentage of the example compound remaining (Composition, %) [1, 2] | Percentage of the released active drug (prednisolone, dexamethasone, budesonide, apremilast or prucalopride) (Composition, %) [1, 2] | Percentage of the example compound remaining (Composition, %) ([1]; Water (pH 1.2) (2 h)) | Percentage of the released active drug (prednisolone, dexamethasone, budesonide, apremilast or prucalopride) (Composition, %) ([1]; Water (pH 1.2) (2 h)) | Percentage of the example compound remaining (Composition, %) (colon flora; [3]) | Percentage of the released active drug (prednisolone, dexamethasone, budesonide, apremilast or prucalopride) (Composition, %) (colon flora; [3]) | Percentage of the example compound remaining (Composition, %) (colon flora; [4])
C[C@@H]1C[C@H]2[C@@H]3CCC4=CC(=O)C=C[C@]4(C)[C@@]3(F)[C@@H](O)C[C@]2(C)[C@@]1(O)C(=O)COC1(CO)O[C@H](CO)[C@@H](O[C@@H]2O[C@H](CO)[C@H](O)[C@H](O)[C@H]2O)[C@@H]1O (stereo partly drawn) [Compound 4, (11β,16α)-9-fluoro-11,17-dihydroxyl-16-methyl-21-{[4-O-(β-D-galactopyranosyl)-D-fructofuranosyl]oxy}pregna-1,4-diene-3,20-dione] | 99.4% | 0% | 25.0% | 72.7% | 15.6% | 50.3% | –
CCCC1O[C@@H]2C[C@H]3[C@@H]4CCC5=CC(=O)C=C[C@]5(C)[C@H]4[C@@H](O)C[C@]3(C)[C@]2(C(=O)COC2(CO)O[C@H](CO)C(O[C@@H]3OC(CO)[C@H](O)C(O)C3O)C2O)O1 (stereo partly drawn) [Compound 7, (11β,16α)-11-hydroxyl-16,17-(butylidenedioxy)-21-{[4-O-(β-D-galactopyranosyl)-D-fructofuranosyl]oxy}pregna-1,4-diene-3,20-dione] | 98.9% | 0.1% | 20.0% | 61.6% | 27.2% | 45.9% | –
CCOc1cc([C@@H](CS(C)(=O)=O)N2C(=O)c3cccc(N(C(C)=O)C4(CO)O[C@H](CO)C(O[C@@H]5OC(CO)[C@H](O)C(O)C5O)C4O)c3C2=O)ccc1OC (stereo partly drawn) [Compound 12, N-{2-[(S)-1-(3-ethoxy-4-methoxyphenyl)-2-(methylsulfonyl)ethyl]-1,3-dioxo-2,3-dihydro-1H-isoindol-4-yl}-N′-[4-O-(β-D-galactopyranosyl)-D-fructofuranosyl]acetamide] | 100% | 0% | 20.0% | 79.8% | – | – | 30.1%
COCCCN1CCC(N(C(=O)c2cc(Cl)c(N)c3c2OCC3)C2(CO)O[C@H](CO)C(O[C@@H]3OC(CO)[C@H](O)C(O)C3O)C2O)CC1 (stereo partly drawn) [Compound 13, 4-amino-5-chloro-2,3-dihydro-N-[1-(3-methoxypropyl)-4-piperidinyl]-N′-[4-O-(β-D-galactopyranosyl)-D-fructofuranosyl]-7-benzofurancarboxamide] | 99.4% | 0% | 4.4% | 95.0% | – | – | 18.7%
COCCCN1CCC(NC(=O)c2cc(Cl)c(NC3(CO)O[C@H](CO)[C@@H](O[C@@H]4O[C@H](CO)[C@H](O)[C@H](O)[C@H]4O)[C@@H]3O)c3c2OCC3)CC1 (stereo partly drawn) [Compound 14, 5-chloro-2,3-dihydro-4-{[4-O-(β-D-galactopyranosyl)-D-fructofuranosyl]amino}-N-[1-(3-methoxypropyl)-4-piperidinyl]-7-benzofurancarboxamide] | 98.3% | 1.1% | – | 99.5% | – | – | 2.1%
